# Experimental data from PMC6494879, “Drug resistance emergence in macaques administered cabotegravir long-acting for pre-exposure prophylaxis during acute SHIV infection” (Nature Communications, 2019).
# Columns and labels:
# [1] = test system: SIV integrase G140R (SIV IN RTV pseudovirus); assay: organism not typed; assay type: cell-based; conditions: HEK293
# [2] = test system: SIV integrase Q124R (SIV IN RTV pseudovirus); assay: organism not typed; assay type: cell-based
# [3] = test system: SIV integrase I110V (SIV IN RTV pseudovirus); assay: organism not typed; assay type: cell-based
# [4] = test system: SIV integrase G118R (SIV IN RTV pseudovirus); assay type: cell-based; conditions: G118R SIV integrase mutant
# RT-SHIV = assay: Plasma SHIV RNA (RT-PCR) in RT-SHIV-infected macaques treated with CAB LA
# Description: CAB LA (200 mg/mL injectable stock aqueous suspension) was given at a dose of 50 mg kg^−1 under anesthesia by intramuscular injection into the quadriceps. Volumes greater than 1.0 mL were divided into two injection sites.
smiles,measurement,setting,value
"C[C@H]1CO[C@@H]2Cn3cc(C(=O)NCc4ccc(F)cc4F)c(=O)c(O)c3C(=O)N12 [CAB, cabotegravir]",EC50,[1],> 1000 nM
same,EC50,[2]; HEK293,1.22 nM
same,fold-change relative to wild type integrase,[2]; {},1.0 fold
same,EC50,[3]; HEK293,1.27 nM
same,fold-change relative to wild type integrase,[3]; {},1.1 fold
same,fold-change relative to wild type integrase,[4],> 840 fold
same,SHIV RNA copies/ml,"RT-SHIV; macaque 01D520, day 14",213778 copies/ml
same,SHIV RNA copies/ml,"RT-SHIV; macaque 01D520, day 16",25703 copies/ml
same,SHIV RNA copies/ml,"RT-SHIV; macaque 01D520, day 18",6247 copies/ml
same,SHIV RNA copies/ml,"RT-SHIV; macaque 01D520, day 22",1187 copies/ml
same,SHIV RNA copies/ml,"RT-SHIV; macaque 01D520, day 25",478 copies/ml
same,SHIV RNA copies/ml,"RT-SHIV; macaque 01D520, day 29",2040 copies/ml
same,SHIV RNA copies/ml,"RT-SHIV; macaque 01D520, day 32",390 copies/ml
same,SHIV RNA copies/ml,"RT-SHIV; macaque 01D520, day 36",49 copies/ml
same,SHIV RNA copies/ml,"RT-SHIV; macaque 01D520, day 39",316 copies/ml
same,SHIV RNA copies/ml,"RT-SHIV; macaque 01D520, day 43",144 copies/ml
same,SHIV RNA copies/ml,"RT-SHIV; macaque 01D520, day 46",49 copies/ml
same,SHIV RNA copies/ml,"RT-SHIV; macaque 01D520, day 50",49 copies/ml
same,SHIV RNA copies/ml,"RT-SHIV; macaque 01D520, day 53",71 copies/ml
same,SHIV RNA copies/ml,"RT-SHIV; macaque 01D520, day 57",49 copies/ml
same,SHIV RNA copies/ml,"RT-SHIV; macaque 01D520, day 60",49 copies/ml
same,SHIV RNA copies/ml,"RT-SHIV; macaque 01D520, day 64",49 copies/ml
same,SHIV RNA copies/ml,"RT-SHIV; macaque 01D520, day 67",250 copies/ml
same,SHIV RNA copies/ml,"RT-SHIV; macaque 10D181, day 14",179379 copies/ml
same,SHIV RNA copies/ml,"RT-SHIV; macaque 10D181, day 16",39172 copies/ml
same,SHIV RNA copies/ml,"RT-SHIV; macaque 10D181, day 18",9142 copies/ml
same,SHIV RNA copies/ml,"RT-SHIV; macaque 10D181, day 22",2006 copies/ml
same,SHIV RNA copies/ml,"RT-SHIV; macaque 10D181, day 25",507 copies/ml
same,SHIV RNA copies/ml,"RT-SHIV; macaque 10D181, day 29",2459 copies/ml
same,SHIV RNA copies/ml,"RT-SHIV; macaque 10D181, day 32",444 copies/ml
same,SHIV RNA copies/ml,"RT-SHIV; macaque 10D181, day 36",906 copies/ml
same,SHIV RNA copies/ml,"RT-SHIV; macaque 10D181, day 39",1839 copies/ml
same,SHIV RNA copies/ml,"RT-SHIV; macaque 10D181, day 43",2744 copies/ml
same,SHIV RNA copies/ml,"RT-SHIV; macaque 10D181, day 46",344 copies/ml
same,SHIV RNA copies/ml,"RT-SHIV; macaque 10D181, day 50",294 copies/ml
same,SHIV RNA copies/ml,"RT-SHIV; macaque 10D181, day 53",756 copies/ml
same,SHIV RNA copies/ml,"RT-SHIV; macaque 10D181, day 57",241 copies/ml
same,SHIV RNA copies/ml,"RT-SHIV; macaque 10D181, day 60",971 copies/ml
same,SHIV RNA copies/ml,"RT-SHIV; macaque 10D181, day 64",2139 copies/ml
same,SHIV RNA copies/ml,"RT-SHIV; macaque 33996, day 14",154663 copies/ml
same,SHIV RNA copies/ml,"RT-SHIV; macaque 33996, day 16",9000 copies/ml
same,SHIV RNA copies/ml,"RT-SHIV; macaque 33996, day 18",1964 copies/ml
same,SHIV RNA copies/ml,"RT-SHIV; macaque 33996, day 22",112 copies/ml
same,SHIV RNA copies/ml,"RT-SHIV; macaque 33996, day 25",141 copies/ml
same,SHIV RNA copies/ml,"RT-SHIV; macaque 33996, day 29",25 copies/ml
same,SHIV RNA copies/ml,"RT-SHIV; macaque 33996, day 32",55 copies/ml
same,SHIV RNA copies/ml,"RT-SHIV; macaque 33996, day 36",49 copies/ml
same,SHIV RNA copies/ml,"RT-SHIV; macaque 33996, day 39",49 copies/ml
same,SHIV RNA copies/ml,"RT-SHIV; macaque 33996, day 43",49 copies/ml
same,SHIV RNA copies/ml,"RT-SHIV; macaque 33996, day 46",49 copies/ml
same,SHIV RNA copies/ml,"RT-SHIV; macaque 33996, day 50",49 copies/ml
same,SHIV RNA copies/ml,"RT-SHIV; macaque 33996, day 53",49 copies/ml
same,SHIV RNA copies/ml,"RT-SHIV; macaque 33996, day 57",49 copies/ml
same,SHIV RNA copies/ml,"RT-SHIV; macaque 33996, day 60",14 copies/ml
same,SHIV RNA copies/ml,"RT-SHIV; macaque 33996, day 64",59 copies/ml
same,SHIV RNA copies/ml,"RT-SHIV; macaque 35451, day 14",32948 copies/ml
same,SHIV RNA copies/ml,"RT-SHIV; macaque 35451, day 16",24534 copies/ml
same,SHIV RNA copies/ml,"RT-SHIV; macaque 35451, day 18",5566 copies/ml
same,SHIV RNA copies/ml,"RT-SHIV; macaque 35451, day 22",189 copies/ml
same,SHIV RNA copies/ml,"RT-SHIV; macaque 35451, day 25",365 copies/ml
same,SHIV RNA copies/ml,"RT-SHIV; macaque 35451, day 29",487 copies/ml
same,SHIV RNA copies/ml,"RT-SHIV; macaque 35451, day 32",189 copies/ml
same,SHIV RNA copies/ml,"RT-SHIV; macaque 35451, day 36",262 copies/ml
same,SHIV RNA copies/ml,"RT-SHIV; macaque 35451, day 39",194 copies/ml
same,SHIV RNA copies/ml,"RT-SHIV; macaque 35451, day 43",240 copies/ml
same,SHIV RNA copies/ml,"RT-SHIV; macaque 35451, day 46",77 copies/ml
same,SHIV RNA copies/ml,"RT-SHIV; macaque 35451, day 50",318 copies/ml
same,SHIV RNA copies/ml,"RT-SHIV; macaque 35451, day 53",134 copies/ml
same,SHIV RNA copies/ml,"RT-SHIV; macaque 35451, day 57",132 copies/ml
same,SHIV RNA copies/ml,"RT-SHIV; macaque 35451, day 60",90 copies/ml
same,SHIV RNA copies/ml,"RT-SHIV; macaque 35451, day 64",800 copies/ml
same,SHIV RNA copies/ml,"RT-SHIV; macaque 35451, day 67",104 copies/ml
same,SHIV RNA copies/ml,"RT-SHIV; macaque CH54, day 14",680147 copies/ml
same,SHIV RNA copies/ml,"RT-SHIV; macaque CH54, day 16",142531 copies/ml
same,SHIV RNA copies/ml,"RT-SHIV; macaque CH54, day 18",87386 copies/ml
same,SHIV RNA copies/ml,"RT-SHIV; macaque CH54, day 22",4318 copies/ml
same,SHIV RNA copies/ml,"RT-SHIV; macaque CH54, day 25",279 copies/ml
same,SHIV RNA copies/ml,"RT-SHIV; macaque CH54, day 29",2506 copies/ml
same,SHIV RNA copies/ml,"RT-SHIV; macaque CH54, day 32",3049 copies/ml
